From ChEMBL document CHEMBL5050844 (2019)

Experiments:
Assay type in all cases: functional, T cell line
[1] = Induction of anti-CD3 antibodies-stimulated human T cell activation at 1 uM assessed fold increase in IL-2 secretion measured by ELISA assay; further: reference of the scale not given here
[2] = Induction of anti-CD3/CD28 antibodies-stimulated human T cell activation at 4 uM assessed fold increase in IL-2 secretion measured by ELISA assay
[3] = Induction of anti-CD3/CD28 antibodies-stimulated human T cell activation at 0.3 uM assessed fold increase in CD25 expression measured by ELISA assay
[4] = Induction of anti-CD3/CD28 antibodies-stimulated human T cell activation at 1 uM assessed fold increase in CD25 expression measured by ELISA assay
[5] = Induction of anti-CD3/CD28 antibodies-stimulated human T cell activation at 4 uM assessed fold increase in CD25 expression measured by ELISA assay
[6] = Induction of anti-CD3 antibodies-stimulated human T cell activation at 1 uM assessed fold increase in CD25 expression measured by ELISA assay; further: reference of the scale not given here
[7] = Induction of anti-CD3 antibodies-stimulated human T cell activation at 8 uM assessed fold increase in CD25 expression measured by ELISA assay; further: reference of the scale not given here
[8] = Induction of anti-CD3 antibodies-stimulated human T cell activation at 8 uM assessed fold increase in IL-2 secretion measured by ELISA assay; further: reference of the scale not given here
[9] = Induction of anti-CD3/CD28 antibodies-stimulated human T cell activation at 1 uM assessed fold increase in IL-2 secretion measured by ELISA assay
[10] = Induction of anti-CD3/CD28 antibodies-stimulated human T cell activation at 0.3 uM assessed fold increase in IL-2 secretion measured by ELISA assay

SMILES	fold change (FC) [1]	fold change (FC) [2]	fold change (FC) [3]	fold change (FC) [4]	fold change (FC) [5]	fold change (FC) [6]	fold change (FC) [7]	fold change (FC) [8]	fold change (FC) [9]	fold change (FC) [10]
C[C@@H](c1cccc(N2Cc3c(cccc3C(F)(F)F)C2=O)c1)[C@H](F)c1nncn1C (relative stereo)	0.101	2.51	1.01	1.01	1.01	0.601	0.801	>=0.201	2.51	2.51
C[C@@H](c1cccc(N2Cc3c(cccc3C(F)(F)F)C2=O)c1)[C@H](F)c1nncn1C (racemic)	0.051	2.51	1.01	1.01	1.01	0.601	>=1.001	0.151	1.01	1.01
C[C@H](Cc1nncn1C)c1cccc(NC(=O)c2cccc(C(F)(F)CO)n2)c1	<=0.05	<=1	1.01	1.31	>=1.76	<=0.6	<=0.6	0.051	<=1	<=1
Cc1cc(C)nc(C(=O)Nc2cccc([C@H](C)Sc3nncn3C)c2)c1	<=0.05	>=7.5	1.01	1.01	1.01	<=0.6	0.801	<=0.05	5	2.51
Cc1ccc(C(=O)Nc2cccc([C@H](C)Sc3nncn3C)c2)nc1C(F)(F)F	<=0.05	1.01	<=1	1.01	1.01	0.601	>=1.001	<=0.05	<=1	<=1
Cc1[nH]cnc1CC(C)c1cccc(N2Cc3c(cccc3C(F)(F)F)C2=O)c1 (stereo not given)	0.101	<=1	<=1	<=1	1.01	<=0.6	<=0.6	0.101	<=1	<=1
C[C@@H](Cc1nncn1C)c1cccc(NC(=O)c2cc(C3CC3)cc(C(F)(F)F)n2)c1	0.051	1.01	1.01	1.01	1.01	0.601	0.601	0.101	1.01	1.01
Cn1cnnc1C[C@H](c1cccc(N2Cc3c(cccc3C(F)(F)F)C2=O)c1)C(F)(F)F	0.051	1.01	1.01	1.01	1.01	0.601	0.801	0.101	1.01	1.01
C[C@H](Sc1nncn1C)c1ccnc(NC(=O)c2cc3c(C(F)(F)F)cccc3[nH]2)c1	<=0.05	1.01	<=1	<=1	<=1	<=0.6	<=0.6	<=0.05	1.01	1.01
COc1cc(C(=O)Nc2cccc([C@H](C)Cc3nncn3C)c2)nc(C(F)(F)F)c1	0.101	1.01	1.01	1.01	1.01	0.801	0.801	0.101	1.01	1.01
C[C@H](Sc1nncn1C)c1cccc(NC(=O)c2cc3cc(OCC(=O)NCCN)ccc3cn2)c1.Cl	<=0.05	1.01	<=1	<=1	1.01	0.601	0.601	<=0.05	<=1	<=1
CC1OCC1Oc1cc([C@H](C)Cc2nncn2C)cc(N2Cc3c(cccc3C(F)(F)F)C2=O)n1 (stereo not given in full)	0.051	1.01	1.01	1.01	1.01	0.601	0.601	0.101	1.01	1.01
C[C@H](Sc1nncn1C)c1cccc(NC(=O)c2cncc(C(F)(F)F)n2)c1	<=0.05	1.01	<=1	1.01	1.01	<=0.6	0.601	<=0.05	1.01	<=1
Cc1cc(C(=O)Nc2cc([C@H](C)Sc3nncn3C)ccn2)nc(C(F)(F)F)c1	<=0.05	1.01	<=1	<=1	1.01	<=0.6	0.801	0.051	1.01	1.01
C[C@H](Cc1nncn1C)c1cccc(NC(=O)c2cc3cccn3cn2)c1	0.051	1.01	1.01	1.01	1.01	0.601	0.801	0.101	1.01	1.01
C[C@H](Sc1nncn1C)c1cccc(NC(=O)c2cc(C(=O)N3C[C@H](O)C[C@@H]3C)ccn2)c1	<=0.05	>=7.5	1.01	1.01	1.01	<=0.6	0.601	<=0.05	>=7.5	>=7.5
C[C@H](Sc1nncn1C)c1cccc(N2Cc3c(ccnc3Cl)C2=O)c1	<=0.05	2.51	1.51	1.01	>=1.76	<=0.6	0.601	0.101	<=1	1.01
